According to patent publication US20170027893A1, “THIOSEMICARBAZONES INHIBITORS OF LYSOPHOSPHATIDIC ACID ACYLTRANSFERASE AND USES THEREOF” (H. LEE CANCER CENTER AND RESEARCH INSTITUTE, INC., priority 2014, published 2017):
Like-named read-outs stand apart in the source and are kept apart here.

Assays:
LPAAT-β [1] = biological target: T1, LPAAT-β (Homo sapiens, UniProt O15120); details: previously reported inhibitors; cited from earlier work
T1 sequence (O15120 24-278): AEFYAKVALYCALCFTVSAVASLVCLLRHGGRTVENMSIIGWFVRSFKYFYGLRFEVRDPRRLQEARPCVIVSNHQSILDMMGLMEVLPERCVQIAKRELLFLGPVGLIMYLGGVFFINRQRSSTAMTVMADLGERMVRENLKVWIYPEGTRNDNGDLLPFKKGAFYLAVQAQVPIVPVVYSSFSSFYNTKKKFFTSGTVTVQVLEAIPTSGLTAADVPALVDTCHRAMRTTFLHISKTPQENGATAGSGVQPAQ

LPAAT-β [2] = biological target: T1, LPAAT-β; assay: DTNB (Ellman's reagent) 96-well plate screening assay of LPAAT-β enzymatic activity; assay type: biochemical; set-up: The assay utilizes full-length, recombinant, baculovirus-produced LPAAT-β; made in house
Experimental: Screening with a modified screening assay in 96-well plate format for LPAAT-β enzymatic activity was performed as reported by Aguado and Campbell (Aguado et al., Characterization of a human lysophosphatidic acid acyltransferase that is encoded by a gene located in the class III region of the human major histocompatibility complex. J. Biol. Chem. 1998, 273, 4096-105).
The assay utilizes full-length, recombinant, baculovirus-produced LPAAT-β, which catalyzes the production of dioleoyl-[…] from the enzymatic substrates oleoyl-lysophosphatidic acid (LPA) and oleoyl-coenzyme A (Scheme 2). The ability of the compound to inhibit the LPAAT-β activity was assayed by the colorimetric measurement of the reaction of the free thiol group of the released coenzyme A with Ellman's reagent [5,5′-dithiobis-(2-nitrobenzoic acid) or DTNB] (Riener et al., Quick measurement of protein sulfhydryls with Ellman's reagent and with 4,4′-dithiodipyridine. Anal. Bioanal. Chem. 2002, 373, 266-76). […] A hit identified from the Life Chemicals library 6a (IC50 100 nM) was selected for further investigation.

LPAAT-β [3] = biological target: T1, LPAAT-β; assay: secondary thin layer chromatography (TLC) assay measuring fluorescent PA; assay type: biochemical; set-up: The assay utilizes full-length, recombinant, baculovirus-produced LPAAT-β; made in house
[4] = test system: MiaPaCa2 human pancreatic cancer cells; assay: inhibition of proliferation, Alamar blue, 72 h; assay type: cell-based
Experimental: The ability of selected compounds from the libraries 6, 15 and 19 to inhibit the growth of MiaPaCa2 human pancreatic cancer cells was investigated. Human pancreatic carcinoma (MiaPaCa2) cells were plated at a low confluency into 96-well tissue culture-treated plates. After allowing cells to attach and grow overnight at 37 degrees in a 5% CO2 incubator, growth medium was replaced with fresh medium (100 μl/well) containing compounds in a range from 0.1-100 μM. All treatments were made from 500× stock solutions in DMSO, and the control wells received an equivalent amount of DMSO in medium. After 72 hours of growth in the presence of the compounds, Alamar blue was added to the wells according to the manufacturer's instructions (Life Technologies, Grand Island, N.Y.) and cells were incubated in its presence for 2-3 hours. Fluorescence readings were performed using a Biotek Synergy II plate reader with […] wavelengths of 530/590 nm. […] Calculated IC50s are representative of at least three independent experiments.

[5] = test system: Caspase 3 activity in IGROV-1 cells; assay: induction of apoptosis, cleavage of fluorescent Caspase 3 substrate; assay type: cell-based, human; details: IGROV-1, 48 hr
Experimental: FIGS. 5A-5B. Induction of apoptosis with 19s treatment in pancreatic and ovarian cancer cell lines. Human pancreatic (MiaPaCa2) and ovarian (IGROV-1) cells were treated for 48 hr with LPAAT-b inhibitors then harvested and the samples assayed for their ability to cleave a fluorescent Caspase 3 specific substrate, Av-DEVD-AMC (A) In addition, the samples were run on SDS-PAGE gels and Western blotted to assess the presence of the activated form of Caspase 3 (inset). MiaPaCa2 cells show 3.5-fold and IGROV-1 cells show 25-fold activation of Caspase 3 activity after treatment with 19s compared to a vehicle-treated control sample. (B) PARP cleavage in MiaPaCa2 cells treated for 72 hr with 10 μM 19s and 19p.

pancreatic cancer cells [6] = assay: combination treatment with regorafenib (FIG. 23); assay type: cell-based
Source text: This is important for the use of YG9-095-3 in combination with standard therapy for Kras mutant colon cancer.

MiaPaCa2 = assay: anchorage-independent growth in agar; assay type: cell-based, human; details: MiaPaCa2, 2-4 weeks in agar
Experimental: (§1) FIG. 3. LPAAT-β inhibitors block anchorage-independent growth of cancer cell lines. Human pancreatic (MiaPaCa2 and Panc-1), ovarian (OVCAR-5) and breast cancer (MDAMB-231) cells were plated into 3% agar containing LPAAT-β inhibitors and allowed to grow for 2-4 weeks in the presence of the compounds. […] This effect of the small molecules is similar to the effect of knockdown with LPAAT-β siRNA (nt, non-targeting; LP-1, LPAAT-β).

OVCAR-5 = assay: anchorage-independent growth in agar; assay type: cell-based, human; details: OVCAR-5, 2-4 weeks in agar
Experimental: as §1

Panc-1 [7] = assay: anchorage-independent growth in agar; assay type: cell-based, human; details: Panc-1, 2-4 weeks in agar
Experimental: as §1

MDAMB-231 = assay: anchorage-independent growth in agar; assay type: cell-based, human; details: MDAMB-231, 2-4 weeks in agar
Experimental: as §1

RalA = RalA activation (FIG. 21); assay type: cell-based
Source text: Therefore this inhibitor can target the RalA effector arm as well as mTOR which few compounds can do.

total cellular PA levels = total cellular PA levels measured by mass spectroscopy in intact cells; assay type: cell-based
Source text: Inhibition is by more than 50%. Inhibition is greater than that seen with a known DAGK inhibitor. DAGK is an enzyme that can also increase PA levels.

[8] = body fat percentage measured by MRI in treated mice; assay type: in vivo; details: after 20 days of treatment
Source text: YG9-095-3 can be a useful compound for the treatment of obesity as well as cancer.

[9] = test system: mTOR effector protein phosphorylation in MiaPaCa2 cells; assay: mTOR effector protein phosphorylation, Western blotting; assay type: cell-based; details: Homo sapiens
Source text: FIG. 4. Inhibition of mTOR effector protein phosphorylation by LPAAT-β inhibitor.

OVCAR-5 cells = assay: combination with 5-FU, proliferation by Alamar blue, isobolograms; assay type: cell-based, human; details: OVCAR-5, 72 hr
Experimental: (§2) FIG. 6. Synergistic effect of YG9-095-3 with 5-FU in IGROV-1 ovarian cancer cells. Human ovarian and pancreatic carcinoma cell lines (IGROV-1 and OVCAR-5; Panc-1) were treated for 72 hr with 19s, 5-FU, and the two drugs in simultaneous combination. […] However, in OVCAR-5 cells, at low concentration there appears to be an additive effect of the two drugs on proliferation, but the effect becomes antagonistic at the higher concentrations of YG9-095-3.

[10] = test system: IGROV-1 ovarian cancer cells; assay: as above; assay type: cell-based, human; details: IGROV-1, 72 hr, simultaneous combination
Experimental: as §2

Panc-1 [11] = assay: as above; assay type: cell-based, human; details: Panc-1, 72 hr
Experimental: as §2

pancreatic cancer cells [12] = assay: cell cycle progression (FIG. 22); assay type: cell-based
mTOR signaling = assay: inhibition of mTOR signaling (FIG. 20); assay type: cell-based
Source text: P-p7056k and p-4EBP1 are decreased by treatment at 3 micromolar or higher.

[13] = Table 4, read-out: IC50 (μm) (DTNB assay) (converted)
[14] = read-out: IC50 (μM) (DTNB assay) (converted)

SMILES	IC50 (LPAAT-β [2]; [13]) [µM]	IC50 (LPAAT-β [2]; [14]) [µM]	IC50 (LPAAT-β [3]) [µM]	IC50 (LPAAT-β [3]; Table 4) [µM]	IC50 ([4]; Homo sapiens, MIA PaCa-2) [µM]	other results
CCOc1ccc(Cl)cc1-c1cc(Nc2ccc(Cl)cc2)nc(N)n1 [Compound 1]	–	–	–	–	–	in vitro activity against LPAAT-β enzyme activity, in words (LPAAT-β [1]): potent in vitro activity
C=CCc1cccc(/C=N/NC(N)=S)c1O [Compound 6a]	–	0.86 ± 0.52	33 ± 13	–	38 ± 17	IC50 (LPAAT-β [2]; hit from the Life Chemicals library, before resynthesis, read-out: IC50 of the hit in the library screen): 0.1 µM
CCCc1cccc(C(C)=NNC(N)=S)c1O [Compound 15a]	–	0.65 ± 0.42	35 ± 18	–	23 ± 15	–
CCc1cccc(C=NNC(N)=S)c1O [Compound 6j]	–	0.85 ± 0.56	48 ± 15	–	36 ± 20	–
C#CCOC(=O)Nc1ccc(Cl)c(-c2nc3cc(Cl)ccc3o2)c1 [Compound 3]	–	–	–	–	–	in vitro activity against LPAAT-β enzyme activity, in words (LPAAT-β [1]): potent anti-enzymatic activity
CCOc1ccc(Cl)cc1-c1cc(N)nc(Nc2ccc(Cl)cc2)c1 [Compound 2]	–	–	–	–	–	in vitro activity against LPAAT-β enzyme activity, in words (LPAAT-β [1]): potent in vitro activity

More lines, main results first:

IC50 (LPAAT-β [2]; [13]) [µM]	IC50 (LPAAT-β [2]; [14]) [µM]	IC50 (LPAAT-β [3]) [µM]	IC50 (LPAAT-β [3]; Table 4) [µM]	IC50 ([4]; Homo sapiens, MIA PaCa-2) [µM]	SMILES	other results
0.18	0.18 ± 0.07	4.2 ± 1.2	4.2	–	C=CCc1cc(-c2ccc(Br)cc2)cc(C(C)=NNC(N)=S)c1O [Compound 19o]	IC50 [4]: 5.8 ± 1.6 µM
0.32 ± 0.07	0.32 ± 0.07	2.5 ± 1.4	2.5 ± 1.4	–	C=CCc1cc(-c2ccc(Cl)cc2)cc(C(C)=NNC(N)=S)c1O [Compound 19p]	IC50 [4]: 7.4 ± 2.3 µM
0.57 ± 0.27	0.57 ± 0.27	17 ± 7.3	17 ± 7.3	4.9 ± 2	C=CCc1cc(-c2cc(Cl)cc(Cl)c2)cc(C(C)=NNC(N)=S)c1O [Compound 19t]	–
0.67 ± 0.16	0.67 ± 0.16	9.2 ± 4.2	9.2 ± 4.2	–	C=CCc1cc(-c2ccc(C)c(Cl)c2)cc(C(C)=NNC(N)=S)c1O [Compound 19w]	IC50 [4]: 7.2 ± 3.1 µM
0.36 ± 0.1	0.36 ± 0.1	2.4 ± 0.7	2.4 ± 0.7	6.3 ± 2.9	C=CCc1cc(-c2ccc(Cl)c(Cl)c2)cc(C(C)=NNC(N)=S)c1O [Compound 19s]	activation of Caspase 3 activity compared to vehicle-treated control [5]: 25 fold; combination effect with regorafenib (pancreatic cancer cells [6]): additive to synergistic inhibition; inhibition of anchorage-independent growth (MiaPaCa2): potent inhibition; inhibition of anchorage-independent growth (OVCAR-5): potent inhibition; inhibition of anchorage-independent growth (Panc-1 [7]): potent inhibition; inhibition of anchorage-independent growth (MDAMB-231): potent inhibition; inhibition of RalA activation (RalA): 50%; cell membrane permeability (total cellular PA levels; concluded from treatment of intact cells): cell membrane permeable; inhibition (reduction) of total cellular PA levels (total cellular PA levels; mass spectroscopy, intact cells): more than 50%; decrease in body fat percentage compared to vehicle treated controls [8]: 50%; inhibition at 10 µM ([9]; MIA PaCa-2, read-out: inhibition of P-4E-BP 1): 76%; inhibition at 10 µM ([9]; MIA PaCa-2, read-out: inhibition of P-AKT): 88%; inhibition at 10 µM ([9]; MIA PaCa-2, read-out: inhibition of P-p70): 43%; combination effect with 5-FU on cellular proliferation (OVCAR-5 cells; at low concentration): additive; combination effect with 5-FU on cellular proliferation (OVCAR-5 cells; at the higher concentrations of YG9-095-3): antagonistic; combination effect with 5-FU on cellular proliferation [10]: moderately synergistic; combination effect with 5-FU on cellular proliferation (Panc-1 [11]): mildly additive to antagonistic; effect on cell cycle progression (pancreatic cancer cells [12]): S-phase arrest and accumulation; rescue of cells from the cell cycle effect by exogenous PA (pancreatic cancer cells [12]): can be rescued; concentration at which P-p70S6k and p-4EBP1 are decreased (mTOR signaling): ≥ 3 µM
